Measured values as given in patent US11944605B2, “Rapamycin analogs and uses thereof” (Janssen Pharmaceutica NV, priority 2018, dated 2024).
Converted amounts (≈) assume the structure as drawn.

Columns and labels:
[1] = tested on: pS6K1 (p-p70 S6 Kinase (Thr389)) in MCF-7 cells; experiment: AlphaLISA Ultra pS6K1 Assay; type: cell-based; settings: Homo sapiens, 1.5 h; MCF7 cells, 90 min
Method in brief: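 MCF-7 cells were seeded for 20–24 h, refed with fresh medium for 2 h, then treated with compound for 90 min at 0.5% final DMSO. Lysates were frozen at −80 °C, thawed and assayed by AlphaLISA with acceptor then donor beads, 2 h each.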

[2] = tested on: pAKT (p-Akt 1/2/3 (Ser473)) in MCF-7 cells; experiment: AlphaLISA Ultra pAKT Assay; type: cell-based; settings: Homo sapiens, 1.5 h; MCF7 cells, 90 min
Procedure: AlphaLISA Ultra pAKT Assay
1. MCF-7 cells in Corning 3701 plate and incubate for 20˜24 hour.
16,000˜20,000 cells will be seeded in 36 μL medium per well.
2. Change the culture medium with fresh medium and incubate for another 90 minutes.
3. […]
4. Aspirate […] by HAMILTON, 10 μL rest per well.
5. Add 10 μL 2× lysis buffer using HAMILTON; total volume in wells is 20 μL. Allow cells to shake for 30 min. Cover plate by plastic foil and store plate at −80° C. up to analysis.
6. Thaw cell lysate at RT and transfer 10 ul lysate to assay plate (Optiplate-384).
7. Add 5 μL acceptor beads into assay plate and incubation for 2 hours
8. Add 5 μL donor beads and incubation for 2 hours
9. Count the plate by EnSpire Multimode Plate Reader

[3] = Solubility in 100 mM phosphate buffer (pH 7.4); type: physicochemical; settings: pH 7.4, aqueous buffer
Description: The compound numbers correspond to the compound numbers in Table 1.

mTORC1 over mTORC2 = experiment: mTORC1 selectivity over mTORC2 at 24 hrs (Western blot based pS6K1 and pAKT assay); type: cell-based; settings: 24 hrs

SMILES | IC50 [1] [nM] | IC50 [2] [nM] | solubility [3] [µM] | mTORC1 selective @ 24 hrs (mTORC1 over mTORC2)
CO[C@@H]1C[C@H](C[C@@H](C)[C@@H]2CC(=O)[C@H](C)/C=C(\C)[C@@H](O)[C@@H](OC)C(=O)[C@H](C)C[C@H](C)/C=C/C=C/C=C(\C)C(OCC3COCCOCCOCCOCCOCCO3)C[C@@H]3CC[C@@H](C)[C@@](O)(O3)C(=O)C(=O)N3CCCC[C@H]3C(=O)O2)CC[C@H]1O (stereo partly drawn) [I-1] | 0.1 to 1 | ≥ 100 | 30 to 60 (≈ 35.3 to 70.6 µg/mL) | YES
CO[C@@H]1C[C@H](C[C@@H](C)[C@@H]2CC(=O)[C@H](C)/C=C(\C)[C@@H](O)[C@@H](OC)C(=O)[C@H](C)C[C@H](C)/C=C/C=C/C=C(\C)C(OCC3COCCOCCOCCOCCO3)C[C@@H]3CC[C@@H](C)[C@@](O)(O3)C(=O)C(=O)N3CCCC[C@H]3C(=O)O2)CC[C@H]1O (stereo partly drawn) [I-3] | 0.1 to 1 | ≥ 100 | 30 to 60 (≈ 34 to 67.9 µg/mL) | YES
COCCOCCOC1C[C@@H]2CCC(C)C(O)(O2)C(=O)C(=O)N2CCCC[C@H]2C(=O)OC(C(C)CC2CCC(O)C(OC)C2)CC(=O)C(C)/C=C(\C)C(O)C(OC)C(=O)C(C)CC(C)/C=C/C=C/C=C/1C (stereo partly drawn) [I-17] | 0.1 to 1 | ≥ 100 | 30 to 60 (≈ 30.1 to 60.1 µg/mL) | YES
CO[C@@H]1C[C@H](C[C@@H](C)[C@@H]2CC(=O)[C@H](C)/C=C(\C)[C@@H](O)[C@@H](OC)C(=O)[C@H](C)C[C@H](C)/C=C/C=C/C=C(\C)C(OCCOCCO)C[C@@H]3CC[C@@H](C)[C@@](O)(O3)C(=O)C(=O)N3CCCC[C@H]3C(=O)O2)CC[C@H]1OCCO (stereo partly drawn) [I-23, (21E,23E,25E,26E,34R,35S,36R,37R,38S,41S,43S,45R,46R,55R)-45,55-dihydroxy-42-[2-(2-hydroxyethoxy)ethoxy]-43-[(1R)-2-[(1S,2R,3R)-3-(2-hydroxyethoxy)-2-methoxy-cyclohexyl]-1-methyl-ethyl]-46-methoxy-34, 35,36,37,47,48-hexamethyl-66,67-dioxa-56-azatricyclohexatriaconta-21, 23,25(47),26(48)-tetraene-49,50,51,52,53-pentone] | < 0.1 | ≥ 100 |  | YES
CO[C@@H]1C[C@H](C[C@@H](C)[C@@H]2CC(=O)[C@H](C)/C=C(\C)[C@@H](O)[C@@H](OC)C(=O)[C@H](C)C[C@H](C)/C=C/C=C/C=C(\C)C(OCC(O)CO)C[C@@H]3CC[C@@H](C)[C@@](O)(O3)C(=O)C(=O)N3CCCC[C@H]3C(=O)O2)CC[C@H]1O (stereo partly drawn) [I-25, (21E,23E,25E,26E,30R,31S,32R,33R,35R,37S,39S,40S,41R,42R,52S)-39-(2,3-dihydroxypropoxy)-41, 52-dihydroxy-40-[(1S)-2-[(1S,3R,4R)-4-hydroxy-3-methoxy-cyclohexyl]-1-methyl-ethyl]-42-methoxy-30, 31,32,33,43,44-hexamethyl-64,65-dioxa-53-azatricyclohexatriaconta-21, 23,25(43),26(44)-tetraene-45,46,47,48,49-pentone] | 0.1 to 1 | ≥ 100 |  | YES

The next lines start with results.

IC50 [1] [nM] | IC50 [2] [nM] | solubility [3] [µM] | SMILES | mTORC1 selective @ 24 hrs (mTORC1 over mTORC2)
< 0.1 | ≥ 100 | 30 to 60 (≈ 31 to 61.9 µg/mL) | CO[C@@H]1C[C@H](C[C@@H](C)[C@@H]2CC(=O)[C@H](C)/C=C(\C)[C@@H](O)[C@@H](OC)C(=O)[C@H](C)C[C@H](C)/C=C/C=C/C=C(\C)[C@@H](OCCOCCOCCO)C[C@@H]3CC[C@@H](C)[C@@](O)(O3)C(=O)C(=O)N3CCCC[C@H]3C(=O)O2)CC[C@H]1O [Compound I-29] | 
0.1 to 1 | ≥ 100 | > 60 | CO[C@@H]1C[C@H](C[C@@H](C)[C@@H]2CC(=O)[C@H](C)/C=C(\C)[C@@H](O)[C@@H](OC)C(=O)[C@H](C)C[C@H](C)/C=C/C=C/C=C(\C)[C@H](OCCOCCOCCO)C[C@@H]3CC[C@@H](C)[C@@](O)(O3)C(=O)C(=O)N3CCCC[C@H]3C(=O)O2)CC[C@H]1O [Compound I-30] | 
